These results are taken from ChEMBL document CHEMBL3046383, “Enantioselective Herbicidal Activity of Chiral α-Methylbenzylphenylureas against Cyperaceae and Echinochloa Paddy Weeds” (Biosci Biotechnol Biochem, 1998).

Activity calls are given as the source filed them. The rule behind the calls is not given here.

Series [1] concerns Cyperus serotinus. The experiment in a line: Herbicidal activity against Cyperus serotinus assessed as phytotoxic activity ratings (0- no effect to 5-complete killing rating scale) at 3.1 to 100 g/a measured after 3 weeks post compound treatment under green house conditions. Type of series: functional.
For series [2], the system named is Schoenoplectiella juncoides. The experiment in a line: Herbicidal activity against Schoenoplectiella juncoides var. Hotarui Ohwi assessed as phytotoxic activity ratings (0- no effect to 5-complete killing rating scale) at 100 g/a measured after 3 weeks post compound treatment under green house conditions. Type of series: functional.
Series [3] relates to Cyperus difformis. The experiment in a line: Herbicidal activity against Cyperus difformis assessed as phytotoxic activity ratings (0- no effect to 5-complete killing rating scale) at 100 g/a measured after 3 weeks post compound treatment under green house conditions. Type of series: functional.
The subject of series [4] is Echinochloa oryzicola. The experiment in a line: Herbicidal activity against Echinochloa oryzicola assessed as phytotoxic activity ratings (0- no effect to 5-complete killing rating scale) at 100 g/a measured after 3 weeks post compound treatment under green house conditions. The class given is functional.
Series [5] relates to Oryza sativa. The experiment in a line: Phytotoxicity against directly seeded Oryza sativa (rice) seedlings assessed as phytotoxic activity ratings (0- no effect to 5-complete killing rating scale) at 100 g/a measured after 3 weeks post compound treatment under green house conditions. Type of series: organism-based. Conditions: in vivo, 504 h.
For series [6], the system named is Oryza sativa. The experiment in a line: Phytotoxicity against transplanted Oryza sativa (rice) seedlings assessed as phytotoxic activity ratings (0- no effect to 5-complete killing rating scale) at 100 g/a measured after 3 weeks post compound treatment under green house conditions. Type of series: organism-based. Particulars: in vivo, 504 h.

For the compound `C[C@@H](NC(=O)Nc1cccc(Br)c1)c1ccccc1`, the outcome in series [1] was inactive. The Activity in series [2] is given as 0%; in series [3], 10%; in series [4], 0%; in series [5], 0%; in series [6] it was 0%.
Turning to `C[C@H](NC(=O)Nc1ccccc1Cl)c1ccccc1`, in series [1], the outcome was inactive. Moreover, the Activity turned out to be 0% in series [2]; 10% in series [3]; 0% in series [4]; 0% in series [5]; 0% in series [6].
As for `C[C@@H](NC(=O)Nc1cccc(Cl)c1Cl)c1ccccc1`, the outcome in series [1] was inactive. The Activity in series [2], in series [3], in series [4], in series [5] and in series [6] was 0% each time.
In the case of `C[C@@H](NC(=O)Nc1ccc(Cl)cc1)c1ccccc1`, the outcome in series [1] was inactive. The Activity in series [2], in series [3], in series [4], in series [5] and in series [6] was 0% each time.
For the compound `C[C@H](NC(=O)Nc1ccc(F)cc1)c1ccccc1`, the outcome in series [1] was inactive. The Activity in series [2], in series [3], in series [4], in series [5] and in series [6] was 0% each time.
For the compound `C[C@H](NC(=O)Nc1cccc(F)c1)c1ccccc1`, the result in series [1] was inactive. In addition, the Activity in series [2] came out at 0%; in series [3], 10%; in series [4] it was 10%; in series [5] it was 10%; in series [6], 0%.
In the case of `CC(=O)c1cccc(NC(=O)N[C@@H](C)c2ccccc2)c1`, the outcome in series [1] was inactive. Also, the Activity in series [2], in series [3], in series [4], in series [5] and in series [6] was 0% in each case.
Turning to `CCCCCc1ccc(NC(=O)N[C@@H](C)c2ccccc2)cc1`, the result in series [1] was inactive. Besides, the Activity in series [2], in series [3], in series [4], in series [5] and in series [6] was 0% throughout.
As for `CCCCCCc1ccc(NC(=O)N[C@H](C)c2ccccc2)cc1`, the outcome in series [1] was inactive. The Activity in series [2], in series [3], in series [4], in series [5] and in series [6] was 0% in each case.
Consider `C[C@@H](NC(=O)Nc1ccc(I)cc1)c1ccccc1`, for which the outcome in series [1] was inactive. In addition, the Activity in series [2], in series [3], in series [4], in series [5] and in series [6] was 0% each time.
`C[C@H](NC(=O)Nc1cc(C(F)(F)F)cc(C(F)(F)F)c1)c1ccccc1`: the outcome in series [1] was inactive. For the same compound, the Activity in series [2], in series [3], in series [4], in series [5] and in series [6] was 0% each time.
Consider `CCCCc1ccc(NC(=O)N[C@@H](C)c2ccccc2)cc1`, for which, in series [1], the result was inactive. For the same compound, the Activity worked out at 0% in series [2]; 0% in series [3]; 10% in series [4]; 10% in series [5]; 0% in series [6].
`C[C@@H](NC(=O)Nc1cc(F)cc(F)c1)c1ccccc1`: the result in series [1] was inactive. Besides, the Activity in series [2], in series [3], in series [4], in series [5] and in series [6] was 0% throughout.
Turning to `C[C@@H](NC(=O)Nc1cccc(C(F)(F)F)c1F)c1ccccc1`, in series [1], the result was inactive. Moreover, the Activity in series [3], in series [4], in series [5] and in series [6] was 0% throughout.
For the compound `C[C@H](NC(=O)Nc1ccc(Cl)c(Cl)c1)c1ccccc1`, the outcome in series [1] was inactive. Further, the Activity in series [2], in series [3], in series [4], in series [5] and in series [6] was 0% each time.
For the compound `C[C@H](NC(=O)Nc1ccc(Cl)cc1)c1ccccc1`, the result in series [1] was inactive. The Activity in series [2], in series [3], in series [4], in series [5] and in series [6] was 0% each time.
`C[C@@H](NC(=O)Nc1cccc(F)c1)c1ccccc1`: the result in series [1] was inactive. The Activity in series [2] came to 0%; in series [3], 10%; in series [4] it was 0%; in series [5] it was 0%; in series [6] it was 0%.
Regarding `C[C@H](NC(=O)Nc1ccccc1I)c1ccccc1`, the outcome in series [1] was inactive. Further, the Activity in series [2] stood at 0%; in series [3], 10%; in series [4] it was 0%; in series [5] it was 0%; in series [6], 0%.
`CCOC(=O)c1ccc(NC(=O)N[C@@H](C)c2ccccc2)cc1`: the result in series [1] was inactive. Besides, the Activity in series [2], in series [3], in series [4], in series [5] and in series [6] was 0% in each case.
In the case of `C[C@H](NC(=O)Nc1ccc(C(F)(F)F)cc1)c1ccccc1`, the result in series [1] was inactive. Also, the Activity in series [2], in series [3], in series [4], in series [5] and in series [6] was 0% each time.
Consider `CCOC(=O)c1cccc(NC(=O)N[C@H](C)c2ccccc2)c1`, for which, in series [1], the outcome was inactive. Besides, the Activity in series [2], in series [3], in series [4], in series [5] and in series [6] was 0% in each case.
As to `C[C@@H](NC(=O)Nc1cccc(I)c1)c1ccccc1`, the outcome in series [1] was inactive. Also, the Activity in series [2] amounted to 0%; in series [3], 10%; in series [4] it was 0%; in series [5], 0%; in series [6], 0%.
As to `C[C@H](NC(=O)Nc1cc(F)cc(F)c1)c1ccccc1`, in series [1], the result was inactive. Besides, the Activity in series [2] turned out to be 0%; in series [3], 0%; in series [4], 10%; in series [6], 0%.
Turning to `C[C@@H](NC(=O)Nc1ccc(C(C)(C)C)cc1)c1ccccc1`, the result in series [1] was inactive. Besides, the Activity in series [2] stood at 0%; in series [3] it was 0%; in series [4], 10%; in series [5], 0%; in series [6] it was 0%.
With `CCOC(=O)c1ccccc1NC(=O)N[C@H](C)c1ccccc1`, in series [1], the result was inactive. Further, the Activity in series [2], in series [3], in series [4], in series [5] and in series [6] was 0% each time.
In the case of `C[C@H](NC(=O)Nc1cc(C(C)(C)C)ccc1C(C)(C)C)c1ccccc1`, the outcome in series [1] was inactive. For the same compound, the Activity in series [3], in series [4], in series [5] and in series [6] was 0% throughout.
Consider `C[C@H](NC(=O)Nc1cccc(Br)c1)c1ccccc1`, for which the result in series [1] was inactive. The Activity in series [2] is listed as 0%; in series [3], 10%; in series [4], 0%; in series [5], 0%; in series [6], 0%.
For `COc1ccccc1NC(=O)N[C@H](C)c1ccccc1`, the result in series [1] was inactive. Further, the Activity in series [2], in series [3], in series [4], in series [5] and in series [6] was 0% each time.
`CCCc1ccc(NC(=O)N[C@@H](C)c2ccccc2)cc1`: the Activity in series [2] turned out to be 0%; in series [3] it was 40%; in series [4] it was 10%; in series [5] it was 0%; in series [6] it was 0%.
For the compound `C[C@@H](NC(=O)Nc1ccccc1I)c1ccccc1`, the outcome in series [1] was inactive. Moreover, the Activity in series [3] is on record as 10%; in series [4], 0%; in series [5] it was 0%; in series [6], 0%.
For `C[C@H](NC(=O)Nc1ccc(Br)cc1)c1ccccc1`, in series [1], the result was inactive. Besides, the Activity in series [3], in series [4], in series [5] and in series [6] was 0% throughout.
